Patent US12559464B2, “Quinazolinone dione compounds and uses thereof” (Edgewise Therapeutics, Inc., priority 2023, dated 2026)

Assays:
[1] = test system: myosin ATPase, Rabbit Psoas myofibrils; assay: Myofibril ATPase assay, rabbit psoas (skeletal) myofibrils; type: biochemical; conditions: Rabbit Psoas Prep pCa 25 GEOM_MEAN; for Rabbit Psoas EC25 (Y75 value): concentration required to reduce myosin ATP-ase activity by 25%; for Rabbit Psoas Y125 value (marked #): concentration required to increase myosin ATP-ase activity by 25%
Experimental: [Worded in the source for another species; this species is reported under the same test.] (§1) Myofibril ATPase assays are known in the art to be useful in evaluating small molecules for the treatment of HCM and other cardiac indications. Myosin ATPase activity is assessed by using a coupled reaction system, in which ADP generated by the myosin ATPase function is coupled to the disappearance of NADH through the pyruvate kinase/lactate dehydrogenase (PK-LDH) system. ATPase activity produces ADP, which is used as a substrate for PK to produce pyruvate and regenerate ATP. The pyruvate is then used as a substrate by LDH to oxidize NADH to NAD+. The rate of the reaction is monitored through the time-dependent disappearance of NADH using absorbance at 340 nm, which, when the couple system is in stoichiometric excess, is directly correlated to the ATPase activity of the myosin. Inhibition of ATPase activity by the assayed compounds is indicated by a reduced rate of NADH loss, relative to vehicle-treated controls, over the experimental time window. Porcine Ventricle are the primary sources of myofibril material.
(§2) Materials: The following stock solutions and reagents were used in the Myofibril ATPase Assay: Stock Solutions; PIPES, 200 mM and 120 mM in H2O, pH 7.0; MgCl2 in H2O, 200 mM; PM12 Buffer, 10×: 120 mM PIPES (from 200 mM stock), 20 mM MgCl2 (from 200 mM stock); PBS Buffer, 1X: 135 mM NaCl, […], 10 mM Na(PO4)2, 1.8 mM K2(PO4), pH 7.4; EGTA in H2O, 250 mM; CaCl2) in H2O, 500 mM; DTT in H2O, 1 M; BSA in H2O, 10 mg/mL; ATP in 1×PBS, 50 mM; NADH in 1X PM12 and 1 mM DTT, 26 mM; PEP in 1X PM12, 78 mM, pH 7.0.
(§3) Stock Solutions of pCa buffer. Combine PIPES, CaCl2, and EGTA solutions with water. Adjust pH to 7.0 and bring final volume to 100 mL.
(§4) Buffer A & Buffer B. Prepare buffers A and B according to the table below.
(§5) Myofibril ATPase Assay Procedure: BSA, ATP, NADH, PEP, and DTT solutions were thawed at room temperature, then transferred to ice. Pellet-frozen myofibrils were transferred with approximately twice the required volume into a sufficiently large tube and capped. Myofibrils were thawed by rolling in a water bath for approximately 15 min at room temperature and cooled on ice. Buffers A and B were prepared by adjusting volumes as necessary for required number of wells and stored on ice. 0.5 μL of the compounds to be assayed were added into wells. 25 μL of Buffer A was dispensed into the wells, followed by 25 μL of Buffer B. The wells were measured for absorbance at 340 nm, using a kinetic protocol in which the wells are read every 1.5-2 min for 75 min. Assay data analysis was performed using a python script that filtered the raw data to retain those points falling between a starting and ending time and between a maximum and minimum absorbance, then used the filtered time-domain 340 nm absorbance data in each well to calculate a slope via linear regression analysis in units of mAU/min. Compound slopes were normalized between 100% and 0% activity, where 100% represented the slope of wells containing only compound vehicle, and fit to a 4-parameter logistic model. In addition to the fit parameters, the EC25% values were calculated, relative to the 100% normalized value. Additionally, the Y125 values were calculated for compounds that increased myosin ATP-ase activity. Fit parameters, calculated effective concentrations, filtered raw data, and calculated slopes were exported, in addition to compound-specific graphs of normalized ATPase activity versus concentration in μM. Each value reported in Table 8 is either a Y75 value or a Y125 value. Values without pound sign, #, are Y75 values, which reflect the concentration required to reduce myosin ATP-ase activity by 25% (e.g., Y-axis activity value is 75% of initial value), relative to myosin ATP-ase activity in the absence of exogenous compound. […]

[2] = test system: myosin ATPase, Porcine Atria myofibrils; assay: Myofibril ATPase assay, porcine atria myofibrils; type: biochemical; conditions: concentration required to reduce myosin ATP-ase activity by 25%; Porcine Atria Prep pCa 25 GEOM_MEAN
[3] = biological target: T1, myosin ATPase, Porcine Ventricle myofibrils (Sus scrofa, UniProt P79293); assay: Myofibril ATPase assay, porcine ventricle myofibrils; type: biochemical, porcine (Yucatan minipigs); conditions: concentration required to reduce myosin ATP-ase activity by 25%; Porcine Ventricle Prep pCa 25 GEOM_MEAN
T1 construct: Myofibrils from porcine cardiac muscle was isolated from the left ventricle of Yucatan minipigs; tissue Exemplar Genetics; host or cells: left ventricle of Yucatan minipigs, myofibrils
T1 sequence (P79293 whole entry): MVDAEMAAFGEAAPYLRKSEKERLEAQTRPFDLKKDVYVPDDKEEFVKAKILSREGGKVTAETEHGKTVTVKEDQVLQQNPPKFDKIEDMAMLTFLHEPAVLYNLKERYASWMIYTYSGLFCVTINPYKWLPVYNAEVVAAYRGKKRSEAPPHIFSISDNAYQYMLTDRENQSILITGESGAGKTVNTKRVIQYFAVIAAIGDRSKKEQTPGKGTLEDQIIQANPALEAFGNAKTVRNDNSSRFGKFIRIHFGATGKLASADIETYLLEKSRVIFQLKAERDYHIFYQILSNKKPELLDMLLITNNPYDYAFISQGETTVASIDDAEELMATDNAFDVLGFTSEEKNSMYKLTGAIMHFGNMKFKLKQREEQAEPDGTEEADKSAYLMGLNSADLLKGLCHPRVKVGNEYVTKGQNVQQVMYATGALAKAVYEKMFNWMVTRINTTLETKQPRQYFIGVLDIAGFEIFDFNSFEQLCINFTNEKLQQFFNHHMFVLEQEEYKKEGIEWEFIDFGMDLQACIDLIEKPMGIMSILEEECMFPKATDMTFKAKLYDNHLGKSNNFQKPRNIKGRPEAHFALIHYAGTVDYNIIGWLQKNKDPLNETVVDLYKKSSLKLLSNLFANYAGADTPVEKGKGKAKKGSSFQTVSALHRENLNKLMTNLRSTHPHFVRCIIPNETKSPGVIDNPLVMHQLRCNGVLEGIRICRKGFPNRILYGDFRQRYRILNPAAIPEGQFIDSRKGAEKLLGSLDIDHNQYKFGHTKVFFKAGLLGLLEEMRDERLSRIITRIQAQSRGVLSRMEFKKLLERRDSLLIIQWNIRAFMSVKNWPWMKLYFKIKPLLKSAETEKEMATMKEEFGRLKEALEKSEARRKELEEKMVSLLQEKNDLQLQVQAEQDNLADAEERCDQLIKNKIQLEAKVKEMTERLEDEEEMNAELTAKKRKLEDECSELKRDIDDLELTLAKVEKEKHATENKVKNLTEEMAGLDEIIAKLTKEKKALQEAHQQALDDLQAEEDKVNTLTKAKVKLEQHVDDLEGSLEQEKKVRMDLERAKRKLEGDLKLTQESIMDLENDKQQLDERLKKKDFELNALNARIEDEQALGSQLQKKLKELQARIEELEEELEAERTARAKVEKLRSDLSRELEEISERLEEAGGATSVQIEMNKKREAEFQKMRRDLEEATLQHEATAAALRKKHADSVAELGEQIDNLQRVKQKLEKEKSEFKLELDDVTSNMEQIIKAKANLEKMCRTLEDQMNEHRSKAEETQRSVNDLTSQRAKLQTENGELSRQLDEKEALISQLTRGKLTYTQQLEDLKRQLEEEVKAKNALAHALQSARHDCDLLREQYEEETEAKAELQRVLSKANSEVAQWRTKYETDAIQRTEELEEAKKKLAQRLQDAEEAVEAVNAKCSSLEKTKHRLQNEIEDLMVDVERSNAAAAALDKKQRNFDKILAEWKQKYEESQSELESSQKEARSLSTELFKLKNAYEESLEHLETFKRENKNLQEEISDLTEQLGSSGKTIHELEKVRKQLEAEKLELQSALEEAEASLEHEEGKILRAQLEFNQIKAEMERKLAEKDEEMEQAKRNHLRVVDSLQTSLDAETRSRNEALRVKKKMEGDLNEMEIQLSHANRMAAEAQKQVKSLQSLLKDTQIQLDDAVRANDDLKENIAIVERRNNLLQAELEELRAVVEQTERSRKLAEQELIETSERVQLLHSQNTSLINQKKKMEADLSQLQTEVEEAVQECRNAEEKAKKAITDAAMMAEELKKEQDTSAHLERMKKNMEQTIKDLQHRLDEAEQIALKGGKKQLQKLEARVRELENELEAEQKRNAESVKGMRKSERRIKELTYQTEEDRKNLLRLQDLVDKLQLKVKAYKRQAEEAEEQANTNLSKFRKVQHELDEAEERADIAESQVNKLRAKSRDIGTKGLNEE
Experimental: as §1, §2, §3, §4, §5

Row | SMILES | Rabbit Psoas EC25 (Y75 value) [1] [µM] | Porcine Atria EC25 (Y75 value) [2] [µM] | Porcine Ventricle EC25 (Y75 value) [3] [µM] | Rabbit Psoas Y125 value (marked #) [1]
1 | Cc1nccc2[nH]c(=O)n(CC(=O)N[C@H](C)c3ncc(C#N)cc3F)c(=O)c12 (single isomer, unassigned) [Compound 19] | 21.6 | 15.77 | 100 | –
2 | C[C@@H](NC(=O)Cn1c(=O)[nH]c2ccc(F)c(F)c2c1=O)c1ncc(C#N)cc1F (single isomer, unassigned) [Compound 21] | 1.66 | 1.799 | 0.615 | –
3 | C[C@H](NC(=O)Cn1c(=O)[nH]c2ccc(F)c(F)c2c1=O)c1ncc(C#N)cc1F (single isomer, unassigned) [Compound 22] | 0.036 | 0.083 | 0.205 | –
4 | CC(C)C[C@@H](C(=O)N[C@@H](C)c1ncc(F)cc1F)n1c(=O)[nH]c2ccccc2c1=O (single isomer, unassigned) [Compound 27] | 100 | 100 | 100 | –
5 | CC(C)C[C@H](C(=O)N[C@@H](C)c1ncc(F)cc1F)n1c(=O)[nH]c2ccccc2c1=O (single isomer, unassigned) [Compound 28] | 39.563 | 59.55 | 100 | –
6 | CC(C)C[C@@H](C(=O)N[C@@H](C)c1ccc(F)cc1F)n1c(=O)[nH]c2ccccc2c1=O (single isomer, unassigned) [Compound 31] | – | 56.82 | 59.48 | 24.3^# μM
7 | CC(C)C[C@H](C(=O)N[C@@H](C)c1ccc(F)cc1F)n1c(=O)[nH]c2ccccc2c1=O (single isomer, unassigned) [Compound 32] | – | 68.73 | 100 | 7.64^#^ μM
8 | C[C@H](NC(=O)[C@H](C)n1c(=O)[nH]c2cccc(O)c2c1=O)c1ccc(F)cc1F (single isomer, unassigned) [Compound 35] | 0.086 | 0.0835 | 1.64 | –
9 | C[C@H](NC(=O)[C@@H](C)n1c(=O)[nH]c2cccc(O)c2c1=O)c1ccc(F)cc1F (single isomer, unassigned) [Compound 36] | 0.104 | 0.0803 | 1.35 | –
10 | O=C(Cn1c(=O)[nH]c2ccncc2c1=O)N[C@H]1CCc2cc(F)cc(F)c21 (single isomer, unassigned) [Compound 44] | 1.145 | 36.5 | 100 | –
11 | O=C(Cn1c(=O)[nH]c2ccccc2c1=O)N[C@H]1CCc2cc(F)cc(F)c21 (single isomer, unassigned) [Compound 48] | 0.156 | 0.4184 | 7.872 | –
12 | CC[C@H](NC(=O)Cn1c(=O)[nH]c2ccccc2c1=O)c1ccc(F)cc1F (single isomer, unassigned) [Compound 49] | 100 | 100 | 100 | –
13 | CC(C)[C@H](NC(=O)Cn1c(=O)[nH]c2ccccc2c1=O)c1ccc(F)cc1F (single isomer, unassigned) [Compound 50] | 100 | 100 | 100 | –
14 | O=C(Cn1c(=O)[nH]c2ccccc2c1=O)N[C@H]1CCCc2cc(F)cc(F)c21 (single isomer, unassigned) [Compound 55] | 100 | 100 | 100 | –
15 | O=C(Cn1c(=O)[nH]c2ccccc2c1=O)N[C@@H]1CCCc2cc(F)cc(F)c21 (single isomer, unassigned) [Compound 57] | 0.937 | 1.067 | 25.71 | –
16 | CC(C)C[C@H](NC(=O)Cn1c(=O)[nH]c2ccccc2c1=O)c1ccc(F)cc1F (single isomer, unassigned) [Compound 70] | – | 100 | 100 | 90.27^# μM
17 | C[C@H](NC(=O)Cn1c(=O)[nH]c2ccccc2c1=O)c1ccc(O)nc1 (single isomer, unassigned) [Compound 98] | 100 | 100 | 100 | –
18 | C[C@H](NC(=O)Cn1c(=O)[nH]c2ccccc2c1=O)c1ccncc1F (single isomer, unassigned) [Compound 99] | 100 | 100 | 100 | –
19 | C[C@@H](NC(=O)Cn1c(=O)[nH]c2ccccc2c1=O)c1ccncc1F (single isomer, unassigned) [Compound 100] | 12.272 | 31.84 | 100 | –
20 | C[C@H](NC(=O)[C@@H](C)n1c(=O)[nH]c2ccccc2c1=O)c1ccc(F)cc1F (single isomer, unassigned) [Compound 101] | 1.521 | 1.036 | 87.37 | –
21 | C[C@H](NC(=O)[C@H](C)n1c(=O)[nH]c2ccccc2c1=O)c1ccc(F)cc1F (single isomer, unassigned) [Compound 102] | 0.761 | 1.175 | 99.13 | –
22 | C[C@H](NC(=O)Cn1c(=O)[nH]c2cccc(F)c2c1=O)c1ncc(C#N)cn1 (single isomer, unassigned) [Compound 202] | 7.437 | 8.617 | 100 | –
23 | C[C@H](NC(=O)Cn1c(=O)[nH]c2cccc(C#N)c2c1=O)c1ncc(C#N)cn1 (single isomer, unassigned) [Compound 204] | 100 | 100 | 70.61 | –
24 | C[C@@H](NC(=O)Cn1c(=O)[nH]c2cccc(F)c2c1=O)c1ncc(C#N)cc1F (single isomer, unassigned) [Compound 207] | 4.593 | 100 | 100 | –
25 | C[C@H](NC(=O)Cn1c(=O)[nH]c2cccc(F)c2c1=O)c1ncc(C#N)cc1F (single isomer, unassigned) [Compound 208] | 0.065 | 0.085 | 0.254 | –
26 | C[C@@H](NC(=O)Cn1c(=O)[nH]c2ccc(F)cc2c1=O)c1cnc(C#N)nc1 (single isomer, unassigned) [Compound 209] | 39.51 | 100 | 100 | –
